Reference: US20250136997A1, “COMPOSITIONS FOR SEQUESTERING ISOAMYL AMINE AND METHODS OF USE THEREFOR” (University of Louisville Research Foundation, Inc., priority 2023, published 2025)

Key:
promoter of S100A8 = assay: Chromatin immunoprecipitation assay with biotinylated IAA; format: binding, mouse; settings: BV2 genomic DNA
Description: Chromatin immunoprecipitation assay. To identify the interaction of IAA and promoter of S100A8, 1 mg of IAA was labeled with biotin using the EZ-Link NHS-PEG4 Biotinylation kit (Thermo Fisher Sci., #21455) and excess biotin was removed using a desalting column. Biotinylated IAA was incubated with microglia BV2 cells for 3 h at 37° C. following 37% formaldehyde (final 1%) in 1 ml PBS for one more hour for cross-linking. The cell lysate was collected in 1 ml of RIPA buffer and sonication was used to shear the chromatin into 0.5˜1 kb fragment. Streptavidin Dynabeads ([…]) were added to the DNA samples for 1 h at room temperature. PBS replaced the DNA and was incubated with the beads as the control to exclude non-specific interactions. After washing beads with PBS, biotinylated IAA was eluted from the beads with the biotin (4 mg/ml) in 25mMTris-HCL containing 0.3MNaCl (pH 8.5) as the elution buffer at room temperature for 1 h or 95° C. for 5 min. The supernatant was collected and the DNA was purified with acetic acid (2%, v/v) and dissolved into […] of H2O. Two ml of DNA was used in quantitative PCR reactions using the primers of S100A8-ChIP in Table 3.

[1] = system: IAA binding oligo of the S100A8 promoter (hairpin); assay: Nucleic acid unwinding assay (helicase); format: biochemical
Description: Nucleic acid unwinding assay. Helicase reactions were carried out in triplicate in 96-well plates. To prepare DNA substrate, 20 μM single strand DNA (WT: 5′-Cy3-[…]-BHQ1-3′ (SEQ ID NO: 5); Mutant: 5′-Cy3-[…]-BHQ1-3′ (SEQ ID NO: 6; Eurofins Genomics LLC, KY) were denatured at 95° C. for 5 minutes in the reaction buffer (25 mM Tris HCl pH 7.5, 100 mM NaCl, 15 mM MgCl2, 1 mM DTT, 0.1 mg/ml BSA) and cooled slowly to room temperature before add IAA (100 nM) and/or helicase ([…]). After ATP (2 mM) was added to initiate the helicase activity, the fluorescence value was recorded using a microplate reader with an excitation wavelength of 550 and an emission wavelength of 570. BHQ: black-hole quencher.

microglial cells = assay: FACS analysis of apoptotic bodies (ABs) in supernatants of cultured microglial cells; format: cell-based, mouse; settings: microglial cells isolated from young mice
Description: Flow cytometry. Isolated cells were incubated with blocking solution (0.5% BSA/PBS) for 15 minutes at 4° C. For surface staining, cells were stained with various antibodies at room temperature for 1 hour and then washed with PBS. Washed cells were stained for 40 minutes at 4° C. with the appropriate fluorochrome-conjugated antibodies in PBS with 2% FBS. Data were acquired using a BD FACSCalibur flow cytometer (BD Biosciences, San Jose, CA) and analyzed using FlowJo software (Tree Star Inc., Ashland, OR). The following antibodies purchased from Biolegend were used for flow cytometry: anti-CD11b (101208), anti-CD45 (103112) and FITC Annexin V (640945). For the ABs analysis, extracellular vesicles were collected. To recognize the ABs, as described previously, size gates set based on forward scatter (FSC) were applied in combination with Annexin V staining. From these vesicles total ABs were detected using Annexin V staining events.
Isolation of apoptotic bodies. Apoptotic bodies (ABs) were isolated from culture supernatants as previously described. Briefly, cell culture medium was harvested and cells were removed by pelleting at 335×g for 10 minutes. To remove cell-debris, supernatants were centrifuged at 1,000×g for 10 minutes, followed by another centrifugation at 2,000×g for 30 minutes to pellet ABs. Pelleted ABs were resuspended and washed with PBS.

[2] = Single-strand gel shift (SSGS) assay; format: binding; settings: oligos (2 μM) incubated with IAA (10 μM), 15% PAGE
Description: Single-strand gel shift (SSGS) assay. To identify the metabolite binding site of S100A8, we synthesized a series of oligonucleotides (oligos) (Eurofins Genomics LLC, KY) specific to the response putative IAA binding site at the promoter region of S100A8. The oligos ([…]) were incubated with […] of IAA at 37° C. for 30 minutes following electrophoresis on a 15% native PAGE without SDS in 0.5×TBE buffer. The oligos were stained with ethidium bromide ([…]) and visualized under ultraviolet (UV) light.
Given induction of bacterial metabolite IAA causes the degeneration of microglia by elevation of S100A8 at both the transcription and protein level, we hypothesized that IAA might directly target the promoter of S100A8 and regulate the expression of S100A8. Studying the interaction of metabolites, particularly small molecules, with nucleic acid is challenging due to a lack of appropriate tags for the metabolites. Because of this challenge, we developed a strategy raising the possibility to investigate the interaction of small molecules and nucleic acid.
To test our hypothesis, we first synthesized short single-DNA strains (around 60 mer length each) whose sequences spanned the promoter of S100A8 (FIG. 13A and Table 5). The site and sequence of the promoter and transcription start site (TSS) were determined according to the entire mRNA (Accession #NC_000069.7 (90,576,378 . . . 90,577,341)) and genomic sequence (Accession #L76381) from the NCBI nucleic acid database (FIG. 13A). These DNA oligos (2 μM) were incubated with IAA (10 μM) following native PAGE analysis (FIG. 4A). […] To define the accurate binding site of IAA, we synthesized 10 mer length DNA oligos covering the sequence of S100p1 (Table 5). Unfortunately, the 10 mer length oligo lost the conformational mobility shift in PAGE (FIG. 13C). We then tested the mobility shift with 20 mer oligos. […]

Which “interaction with promoter of S100A8 genomic DNA (ChIP)” value (promoter of S100A8) does the source give for CC(C)CCN [IAA, isoamylamine] here?
Its value is “demonstrated”.

And the “activity of helicase unwinding of the self-complementary binding sequence” value ([1]; WT Cy3/BHQ1 oligo, with helicase)?
Its value is “enhanced”.

And the “unwinding of mutant sequence” value ([1]; mutant Cy3/BHQ1 oligo)?
Its value is “attenuated”.

And the “ABs released into the culture supernatants” value (microglial cells)?
The value was “increase”.

For “S100p1-G: CTGTGGGCAG CTGGCCAAGC (SEQ ID NO: 8), S100A8 promoter −57 . . . −38 (DNA CTGTGGGCAGCTGGCCAAGC; chemistry not given here)”, which “mobility shift on native PAGE after incubation with IAA” value [2] is on record?
Its value is “displayed a shift”.
